Measurements as given in the supplement of paper PMC10307832.

Experiments:
Experiment in all cases: relative viability (nuclei count vs DMSO), 5 days (fraction); higher = more cells survive
JZL-184 + Tozasertib = compound: C1CN(CCC1C(C2=CC3=C(C=C2)OCO3)(C4=CC5=C(C=C4)OCO5)O)C(=O)OC6=CC=C(C=C6)[N+](=O)[O-] [JZL-184] + Cc1cc(Nc2cc(N3CCN(C)CC3)nc(Sc3ccc(NC(=O)C4CC4)cc3)n2)n[nH]1 [Tozasertib] (partner 0.1 µM)
Summary of the method: (§1)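 Lung cancer cell lines in 1536-well plates got either a single drug or a fixed anchor-drug dose together with five library-drug doses (not always all listed) in √10 steps, by pin tool, on the day after seeding. Nuclei were counted after 5 days, and relative viability is the treated-to-vehicle ratio of nuclei counts. Values are medians of duplicate plates.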

JZL-184 + Linsitinib = compound: C1CN(CCC1C(C2=CC3=C(C=C2)OCO3)(C4=CC5=C(C=C4)OCO5)O)C(=O)OC6=CC=C(C=C6)[N+](=O)[O-] [JZL-184] + C[C@]1(O)C[C@@H](c2nc(-c3ccc4ccc(-c5ccccc5)nc4c3)c3c(N)nccn32)C1 [Linsitinib] (partner 1 µM)
Summary of the method: as §1

JZL-184 + Dasatinib = compound: C1CN(CCC1C(C2=CC3=C(C=C2)OCO3)(C4=CC5=C(C=C4)OCO5)O)C(=O)OC6=CC=C(C=C6)[N+](=O)[O-] [JZL-184] + Cc1nc(Nc2ncc(C(=O)Nc3c(C)cccc3Cl)s2)cc(N2CCN(CCO)CC2)n1 [Dasatinib] (partner 0.075 µM)
Summary of the method: as §1

JZL-184 + Olaparib = compound: C1CN(CCC1C(C2=CC3=C(C=C2)OCO3)(C4=CC5=C(C=C4)OCO5)O)C(=O)OC6=CC=C(C=C6)[N+](=O)[O-] [JZL-184] + O=C(c1cc(Cc2n[nH]c(=O)c3ccccc23)ccc1F)N1CCN(C(=O)C2CC2)CC1 [Olaparib] (partner 8 µM)
Summary of the method: as §1

JZL-184 + Vorinostat = compound: C1CN(CCC1C(C2=CC3=C(C=C2)OCO3)(C4=CC5=C(C=C4)OCO5)O)C(=O)OC6=CC=C(C=C6)[N+](=O)[O-] [JZL-184] + O=C(CCCCCCC(=O)Nc1ccccc1)NO [Vorinostat] (partner 1 µM)
Summary of the method: as §1

| Cell Line | relative viability (JZL-184 + Tozasertib; first compound 0.04 µM) | relative viability (JZL-184 + Tozasertib; first compound 0.4 µM) | relative viability (JZL-184 + Tozasertib; first compound 1.265 µM) | relative viability (JZL-184 + Tozasertib; first compound 4 µM) | relative viability (JZL-184 + Linsitinib; first compound 0.04 µM) | relative viability (JZL-184 + Linsitinib; first compound 0.4 µM) | relative viability (JZL-184 + Linsitinib; first compound 1.265 µM) | relative viability (JZL-184 + Linsitinib; first compound 4 µM) | relative viability (JZL-184 + Dasatinib; first compound 0.04 µM) | relative viability (JZL-184 + Dasatinib; first compound 0.4 µM) | relative viability (JZL-184 + Dasatinib; first compound 1.265 µM) | relative viability (JZL-184 + Dasatinib; first compound 4 µM) | relative viability (JZL-184 + Olaparib; first compound 0.04 µM) | relative viability (JZL-184 + Olaparib; first compound 0.4 µM) | relative viability (JZL-184 + Olaparib; first compound 1.265 µM) | relative viability (JZL-184 + Olaparib; first compound 4 µM) | relative viability (JZL-184 + Vorinostat; first compound 0.04 µM) | relative viability (JZL-184 + Vorinostat; first compound 0.4 µM) | relative viability (JZL-184 + Vorinostat; first compound 1.265 µM) | relative viability (JZL-184 + Vorinostat; first compound 4 µM) |
| --- | --- | --- | --- | --- | --- | --- | --- | --- | --- | --- | --- | --- | --- | --- | --- | --- | --- | --- | --- | --- |
| NCI-H1651 | 0.771 | 0.703 | 0.689 | 0.668 | 0.988 | 0.927 | 0.933 | 0.816 | 0.407 | 0.376 | 0.487 | 0.42 | 0.24 | 0.176 | 0.196 | 0.207 | 0.593 | 0.36 | 0.5 | 0.554 |
| NCI-H1666 | 0.603 | 0.626 | 0.581 | 0.598 | 0.836 | 0.921 | 0.917 | 0.881 | 0.842 | 0.861 | 0.764 | 0.783 | 0.755 | 0.716 | 0.712 | 0.735 | 1.07 | 1.02 | 1.01 | 1.01 |
| NCI-H1734 | 0.265 | 0.231 | 0.255 | 0.247 | 0.852 | 0.796 | 0.898 | 0.86 | 0.503 | 0.425 | 0.442 | 0.453 | 0.674 | 0.589 | 0.627 | 0.547 | 0.927 | 0.762 | 0.844 | 0.834 |
| NCI-H1755 | 0.545 | 0.575 | 0.601 | 0.453 | 0.976 | 1.01 | 1.01 | 0.943 | 0.445 | 0.428 | 0.406 | 0.396 | 0.812 | 0.896 | 0.891 | 0.895 | 0.704 | 0.634 | 0.798 | 0.638 |
| NCI-H1793 | 0.289 | 0.385 | 0.409 | 0.233 | 0.849 | 0.82 | 0.853 | 0.707 | 0.511 | 0.36 | 0.41 | 0.369 | 0.978 | 0.911 | 0.933 | 0.861 | 0.663 | 0.571 | 0.963 | 0.64 |
| NCI-H1915 | 0.491 | 0.41 | 0.461 | 0.376 | 1.14 | 0.996 | 1.09 | 1.02 | 0.318 | 0.298 | 0.364 | 0.281 | 0.262 | 0.264 | 0.273 | 0.233 | 0.481 | 0.493 | 0.48 | 0.537 |
| NCI-H1944 | 0.283 | 0.251 | 0.281 | 0.248 | 1.18 | 1.2 | 1.28 | 1.16 | 0.256 | 0.208 | 0.221 | 0.213 | 0.402 | 0.351 | 0.401 | 0.444 | 0.528 | 0.476 | 0.565 | 0.475 |
| NCI-H1975 | 0.757 | 0.686 | 0.869 | 0.634 | 1.04 | 1.04 | 1.02 | 0.896 | 0.427 | 0.356 | 0.347 | 0.31 | 0.849 | 0.726 | 0.876 | 0.694 | 0.731 | 0.694 | 0.718 | 0.635 |
| NCI-H1993 | 0.554 | 0.582 | 0.593 | 0.555 | 0.703 | 0.773 | 0.727 | 0.696 | 0.498 | 0.617 | 0.709 | 0.674 | 1.11 | 1.05 | 1.13 | 0.966 | 0.907 | 0.736 | 1.21 | 0.764 |
| NCI-H2009 | 0.798 | 0.699 | 0.758 | 0.651 | 1.18 | 1.13 | 1.2 | 1.19 | 0.354 | 0.28 | 0.333 | 0.239 | 0.785 | 0.696 | 0.734 | 0.642 | 0.702 | 0.692 | 0.69 | 0.745 |
| NCI-H2023 | 0.356 | 0.318 | 0.345 | 0.296 | 0.664 | 0.756 | 0.757 | 0.522 | 0.713 | 0.549 | 0.587 | 0.48 | 0.529 | 0.466 | 0.484 | 0.44 | 0.766 | 0.587 | 0.588 | 0.44 |
| NCI-H2085 | – | 0.812 | 0.845 | 0.753 | 0.852 | 0.862 | 1.18 | 0.866 | 0.236 | 0.234 | 0.299 | 0.261 | – | 0.743 | 0.815 | 0.704 | – | 0.805 | 0.832 | 0.709 |
| NCI-H2087 | 0.23 | 0.229 | 0.268 | 0.244 | 1.14 | 0.765 | 0.999 | 0.961 | 0.905 | 0.905 | 0.716 | 0.875 | 0.714 | 0.585 | 0.665 | 0.517 | 0.969 | 0.742 | 0.807 | 1 |
| NCI-H2126 | 0.89 | 0.749 | 0.883 | 0.767 | 0.644 | 0.673 | 0.701 | 0.693 | 0.612 | 0.639 | 0.607 | 0.612 | 0.892 | 0.891 | 0.975 | 0.925 | 0.753 | 0.698 | 0.76 | 0.737 |
| NCI-H2228 | 0.327 | 0.299 | 0.282 | 0.271 | 0.642 | 0.892 | 0.636 | 0.616 | 0.663 | 0.445 | 0.543 | 0.587 | 1.13 | 0.613 | 0.915 | 0.977 | 0.898 | 0.572 | 0.639 | 0.703 |
